Target: T1, human OX2R (Homo sapiens, UniProt O43614)
T1 construct: expressed in transfected cells; host or cells: CHO (Chinese hamster ovary) cells, grown under G418 selection
T1 sequence (O43614 1-444): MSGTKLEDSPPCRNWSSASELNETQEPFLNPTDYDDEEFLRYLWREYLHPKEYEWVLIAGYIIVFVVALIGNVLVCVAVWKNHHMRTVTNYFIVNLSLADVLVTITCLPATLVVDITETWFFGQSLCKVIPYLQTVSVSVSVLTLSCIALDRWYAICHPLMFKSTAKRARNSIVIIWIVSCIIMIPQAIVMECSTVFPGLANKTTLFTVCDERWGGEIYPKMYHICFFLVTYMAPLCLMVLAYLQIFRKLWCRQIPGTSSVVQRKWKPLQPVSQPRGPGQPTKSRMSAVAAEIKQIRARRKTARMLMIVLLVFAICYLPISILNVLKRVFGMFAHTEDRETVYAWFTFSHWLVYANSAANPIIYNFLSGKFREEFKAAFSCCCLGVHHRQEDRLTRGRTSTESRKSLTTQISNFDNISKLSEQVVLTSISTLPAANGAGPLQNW
Assay: IP-One (IPOne) orexin receptor agonist assay in CHO cells expressing human OX2R
Format: cell-based
Details: for EC50: CHO cells expressing human OX2R, IP-One IP-1 detection, 2 hours incubation, four parameter logistic fit, read-out: OX2R Potency, EC50; for % of reference agonist maximal effect: human OX2R, percentage of sample raw value/mean max effect (reference compound at 1 uM with 100% activity)
From the text: The utility of the compounds in accordance with the present invention as orexin receptor OX1R and/or OX2R agonists may be readily determined without undue experimentation by methodology well known in the art. Both the OX1R and/or OX2R G-coupled protein receptors (GPCRs) couple through the Gαq signaling pathway, which ultimately promotes calcium mobilization via inositol triphosphate (IP3) production. The half-life of IP-3 is relatively short, being rapidly metabolized to inositol monophosphate (IP-1), which can be readily detected using a commercially available assay kit (IP-One; Cisbio; cat #621PAPEC) coupled with a cell line expressing the target receptor(s) of interest. The utility of the compounds in accordance with the present invention as orexin receptor OX1R and/or OX2R agonists may be determined utilizing this assay.
In a typical experiment, the OX1 and OX2 receptor agonist activity is determined in accordance with the following general experimental method. Chinese hamster ovary (CHO) cells expressing human OX1R and/or the human OX2R were grown in Iscove's modified DMEM containing glutaMAX™, 1% G418, 100 U/mL penicillin, 100 μg/mL streptomycin and 10% heat-inactivated qualified fetal bovine serum (FBS). The OX2R cells were seeded at 10,000 cells/well/50 μL and the OX1R cells were seeded at 20,000 cells/well/50 μL into 384-well white tissue culture plates (Greiner; cat #781080). All cell/media reagents were from GIBCO-Invitrogen Corp. The seeded cell plate(s) were incubated at 37° C. with 5% CO2 and 85% humidity for 20-24 hours. On the day of the assay, assay-ready compound plates were prepared using an acoustic liquid handler (ECHO; Labcyte), which dispensed sufficient volume of test compound stock (10 mM in DMSO) or 100% DMSO to prepare 10 point, ½-log dilutions in a final volume of 202.5 nL/well in all test wells of a 384-well diamond plate (Labcyte). Following completion of assay-ready plates, importantly, the next three steps were performed with minimal delay: 1) 20 μl of 1× stimulation buffer was added to the compound plate using a Multidrop Combi (small cassette, Thermo Fisher Scientific cat #24073290); 2) culture medium was removed from the cell plate using the Bluewasher plate washer (gentle spin; BlueCatBio); 3) 14 μl of compound/stimulation buffer mixture was added to the cell plate using a Bravo liquid handler (Agilent) prior to incubating cell plates at 37° C. with 5% CO2 and 85% humidity for 1 or 2 hours (OX1R and OX2R, respectively). During this incubation, IP-one detection reagents were prepared (38:1:1 lysis buffer:D2:AB-cryptate reagents). Six μL of mixed detection reagents were added to the cell plate using a Multidrop Combi (small cassette, Thermo Fisher Scientific cat #24073290) and incubated 60 minutes at room temperature in the dark. Fluorescence signal was detected using an Envision plate reader (Perkin Elmer) [LANCE/DELFIA Dual Enh (Em: APC 665; Ex: Cy5 620)].
For each compound, data were fit to a four parameter logistic fit (ActivityBase software) and the EC50 was reported as the inflection point of the resulting curve. Percent effect for each test compound was determined as the percentage of sample raw value/mean max effect, where the mean max effect was derived from the mean raw value of 32 control wells per assay plate (using Orexin A (cat #003-30) at 1 μM for human OX1R and a reference compound at 1 uM with 100% activity previously established by comparison to Orexin A for human OX2R). The intrinsic orexin receptor agonist activity of a compound which may be used in the present invention may be determined by these assays.

| SMILES | EC50 | % of reference agonist maximal effect |
| --- | --- | --- |
| CC(C)(O)C(=O)N1CCC[C@H](c2cc[nH]n2)[C@@H]1CO[C@H]1CC[C@@H](c2ccccc2)CC1 (relative stereo) [Example 77, 2-hydroxy-2-methyl-1-((CIS)-2-((((CIS)-4-phenylcyclohexyl)oxy)methyl)-3-(1H-pyrazol-3-yl)piperidin-1-yl)propan-1-one] | 4.34 µM | 96.1% |
| O=C(N1CCC[C@H](c2cc[nH]n2)[C@@H]1CO[C@H]1CC[C@@H](c2ccccc2)CC1)C1(O)CC1 (relative stereo) [Example 78, (1-hydroxycyclopropyl)((CIS)-2-((((CIS)-4-phenylcyclohexyl)oxy)methyl)-3-(1H-pyrazol-3-yl)piperidin-1-yl)methanone] | 4.43 µM | 92.6% |
| CC1(C(=O)N2CCC[C@H](c3cc[nH]n3)[C@@H]2CO[C@H]2CC[C@@H](c3ccccc3)CC2)CC1 (relative stereo) [Example 80, (1-methylcyclopropyl)((CIS)-2-((((CIS)-4-phenylcyclohexyl)oxy)methyl)-3-(1H-pyrazol-3-yl)piperidin-1-yl)methanone] | 5.55 µM | 87.5% |
| CC(C)[C@H]1CC[C@@H](OC[C@H]2[C@@H](c3cc[nH]n3)CCCN2C(=O)C2CC2(C)C)CC1 (relative stereo) [Example 81, (2,2-dimethylcyclopropyl)((CIS)-2-((((CIS)-4-isopropylcyclohexyl)oxy)methyl)-3-(1H-pyrazol-3-yl)piperidin-1-yl)methanone] | 5.65 µM | 70.0% |
| CC(C)[C@H]1CC[C@@H](OC[C@H]2[C@@H](c3cc[nH]n3)CCCN2C(=O)C2CCCC2)CC1 (relative stereo) [Example 83, cyclopentyl((CIS)-2-((((CIS)-4-isopropylcyclohexyl)oxy)methyl)-3-(1H-pyrazol-3-yl)piperidin-1-yl)methanone] | 7.08 µM | 73.9% |
| COC(C)(C)C(=O)N1CCC[C@H](c2cc[nH]n2)[C@@H]1CO[C@H]1CC[C@@H](c2ccccc2)CC1 (relative stereo) [Example 87, 2-methoxy-2-methyl-1-((CIS)-2-((((CIS)-4-phenylcyclohexyl)oxy)methyl)-3-(1H-pyrazol-3-yl)piperidin-1-yl)propan-1-one] | 8.81 µM | 78.7% |
| CC1(C)C[C@H]1C(=O)N1CCC[C@H](c2cc[nH]n2)[C@@H]1COC1CCC(c2ccccc2)CC1 (relative stereo) [Example 91, ((R)-2,2-dimethylcyclopropyl)((CIS)-2-((((CIS)-4-phenylcyclohexyl)oxy)methyl)-3-(1H-pyrazol-3-yl)piperidin-1-yl)methanone] | 6.7 µM | 81% |
| O=C(C1CC1(F)F)N1CCC[C@H](c2cc[nH]n2)[C@@H]1CO[C@H]1CC[C@@H](c2ccccc2)CC1 (relative stereo) [Example 92, (2,2-difluorocyclopropyl)((CIS)-2-((((CIS)-4-phenylcyclohexyl)oxy)methyl)-3-(1H-pyrazol-3-yl)piperidin-1-yl)methanone] | 6.9 µM | 88.6% |
| CC(C)[C@H]1CC[C@@H](OC[C@H]2[C@@H](c3cc[nH]n3)CCCN2C(=O)OCc2ccccc2Cl)CC1 (relative stereo) [Example 93, 2-chlorobenzyl (CIS)-2-((((CIS)-4-isopropylcyclohexyl)oxy)methyl)-3-(1H-pyrazol-3-yl)piperidine-1-carboxylate] | 5.22 µM | 28.5% |
| O=C(OCC(F)F)N1CCC[C@H](c2cc[nH]n2)[C@@H]1CO[C@H]1CC[C@@H](c2ccccc2)CC1 (relative stereo) [Example 96, 2,2-difluoroethyl (CIS)-2-((((CIS)-4-phenylcyclohexyl)oxy)methyl)-3-(1H-pyrazol-3-yl)piperidine-1-carboxylate] | 0.754 µM | 91.3% |
| CC(=O)COC(=O)N1CCC[C@H](c2cc[nH]n2)[C@@H]1CO[C@H]1CC[C@@H](c2ccccc2)CC1 (relative stereo) [Example 97, 2-oxopropyl (CIS)-2-((((CIS)-4-phenylcyclohexyl)oxy)methyl)-3-(1H-pyrazol-3-yl)piperidine-1-carboxylate] | 0.892 µM | 99.1% |

Results, then the molecule that gave them:

| EC50 | % of reference agonist maximal effect | SMILES |
| --- | --- | --- |
| 5.31 µM | 83.2% | CC(C)[C@H]1CC[C@@H](OC[C@H]2[C@@H](c3cc[nH]n3)CCCN2C(=O)C2CCC2)CC1 (relative stereo) [Example 79, cyclobutyl((CIS)-2-((((CIS)-4-isopropylcyclohexyl)oxy)methyl)-3-(1H-pyrazol-3-yl)piperidin-1-yl)methanone] |
| 5.74 µM | 98.1% | CCC(=O)N1CCC[C@H](c2cc[nH]n2)[C@@H]1CO[C@H]1CC[C@@H](C(C)C)CC1 (relative stereo) [Example 82, 1-((CIS)-2-((((CIS)-4-isopropylcyclohexyl)oxy)methyl)-3-(1H-pyrazol-3-yl)piperidin-1-yl)propan-1-one] |
| 7.14 µM | 71.1% | C=CCC(=O)N1CCC[C@H](c2cc[nH]n2)[C@@H]1CO[C@H]1CC[C@@H](C(C)C)CC1 (relative stereo) [Example 84, 1-((CIS)-2-((((CIS)-4-isopropylcyclohexyl)oxy)methyl)-3-(1H-pyrazol-3-yl)piperidin-1-yl)but-3-en-1-one] |
| 7.58 µM | 87% | C#CCCC(=O)N1CCC[C@H](c2cc[nH]n2)[C@@H]1CO[C@H]1CC[C@@H](C(C)C)CC1 (relative stereo) [Example 85, 1-((CIS)-2-((((CIS)-4-isopropylcyclohexyl)oxy)methyl)-3-(1H-pyrazol-3-yl)piperidin-1-yl)pent-4-yn-1-one] |
| 8.39 µM | 64.7% | C#CCCCC(=O)N1CCC[C@H](c2cc[nH]n2)[C@@H]1CO[C@H]1CC[C@@H](C(C)C)CC1 (relative stereo) [Example 86, 1-((CIS)-2-((((CIS)-4-isopropylcyclohexyl)oxy)methyl)-3-(1H-pyrazol-3-yl)piperidin-1-yl)hex-5-yn-1-one] |
| 8.98 µM | 79% | CC(C)[C@H]1CC[C@@H](OC[C@H]2[C@@H](c3cc[nH]n3)CCCN2C(=O)CCC2CC2)CC1 (relative stereo) [Example 88, 3-cyclopropyl-1-((CIS)-2-((((CIS)-4-isopropylcyclohexyl)oxy)methyl)-3-(1H-pyrazol-3-yl)piperidin-1-yl)propan-1-one] |
| 8.77 µM | 79.7% | C#CCOC(=O)N1CCC[C@H](c2cc[nH]n2)[C@@H]1CO[C@H]1CC[C@@H](C(C)C)CC1 (relative stereo) [Example 95, prop-2-yn-1-yl (CIS)-2-((((CIS)-4-isopropylcyclohexyl)oxy)methyl)-3-(1H-pyrazol-3-yl)piperidine-1-carboxylate] |
